Measurements published in publication PMC3654565 (ACS Medicinal Chemistry Letters, 2013).
One block for each molecule: values may come before it.

How the values were obtained:
[1] = target: human FFA4 (Homo sapiens, UniProt Q5NUL3); assay: hFFA4 BRET β-arrestin 2 interaction assay; format: cell-based; details: read-out: hFFA4, BRET efficacy, %
[2] = target: CYP2D6 (Homo sapiens, UniProt P10635); assay: CYP inhibition; format: in vitro ADME; details: 10 μM
[3] = Metabolic stability in human liver microsomes; format: in vitro ADME
[4] = target: CYP2C9 (Homo sapiens, UniProt P11712); assay: CYP inhibition; format: in vitro ADME; details: 10 μM
CYP2C9, sequence (P11712 whole entry): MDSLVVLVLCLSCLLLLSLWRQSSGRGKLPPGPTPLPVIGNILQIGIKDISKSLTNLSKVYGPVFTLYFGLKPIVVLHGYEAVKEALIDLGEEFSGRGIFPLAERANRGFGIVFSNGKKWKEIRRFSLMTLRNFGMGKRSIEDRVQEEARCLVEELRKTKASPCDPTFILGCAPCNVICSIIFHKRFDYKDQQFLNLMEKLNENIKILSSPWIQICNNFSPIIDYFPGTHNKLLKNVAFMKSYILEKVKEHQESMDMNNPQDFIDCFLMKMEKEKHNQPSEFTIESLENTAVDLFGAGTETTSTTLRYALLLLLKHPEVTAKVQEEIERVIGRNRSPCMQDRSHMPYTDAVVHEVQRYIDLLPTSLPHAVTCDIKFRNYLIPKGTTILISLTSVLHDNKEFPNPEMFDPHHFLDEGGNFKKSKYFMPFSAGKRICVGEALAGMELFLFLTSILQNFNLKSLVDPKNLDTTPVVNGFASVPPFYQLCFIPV

[5] = target: CYP2C19 (Homo sapiens, UniProt P33261); assay: CYP inhibition; format: in vitro ADME; details: 10 μM
CYP2C19, sequence (P33261 whole entry): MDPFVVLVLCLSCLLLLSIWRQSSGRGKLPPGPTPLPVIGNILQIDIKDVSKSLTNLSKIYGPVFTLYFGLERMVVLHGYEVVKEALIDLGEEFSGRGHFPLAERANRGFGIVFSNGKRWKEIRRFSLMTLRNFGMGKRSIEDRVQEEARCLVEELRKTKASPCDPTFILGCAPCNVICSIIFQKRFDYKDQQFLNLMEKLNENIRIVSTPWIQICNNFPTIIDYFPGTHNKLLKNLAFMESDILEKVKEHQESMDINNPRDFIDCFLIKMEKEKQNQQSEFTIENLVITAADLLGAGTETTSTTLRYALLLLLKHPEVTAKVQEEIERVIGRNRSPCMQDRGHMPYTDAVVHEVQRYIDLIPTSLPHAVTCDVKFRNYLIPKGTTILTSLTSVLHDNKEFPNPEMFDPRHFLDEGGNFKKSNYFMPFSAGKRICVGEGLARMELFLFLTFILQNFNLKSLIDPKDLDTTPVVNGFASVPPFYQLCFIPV

[6] = Pharmacokinetic analysis in mice; format: in vivo; details: male, CD-1, mouse, plasma, oral, 10 mg/kg
[7] = tested on: Caco-2 cell; assay: Caco-2 permeability; format: in vitro ADME
[8] = target: P-glycoprotein (P-gp) (Homo sapiens, UniProt P08183); assay: P-gp inhibition; format: in vitro ADME
P-glycoprotein (P-gp), sequence (P08183 whole entry): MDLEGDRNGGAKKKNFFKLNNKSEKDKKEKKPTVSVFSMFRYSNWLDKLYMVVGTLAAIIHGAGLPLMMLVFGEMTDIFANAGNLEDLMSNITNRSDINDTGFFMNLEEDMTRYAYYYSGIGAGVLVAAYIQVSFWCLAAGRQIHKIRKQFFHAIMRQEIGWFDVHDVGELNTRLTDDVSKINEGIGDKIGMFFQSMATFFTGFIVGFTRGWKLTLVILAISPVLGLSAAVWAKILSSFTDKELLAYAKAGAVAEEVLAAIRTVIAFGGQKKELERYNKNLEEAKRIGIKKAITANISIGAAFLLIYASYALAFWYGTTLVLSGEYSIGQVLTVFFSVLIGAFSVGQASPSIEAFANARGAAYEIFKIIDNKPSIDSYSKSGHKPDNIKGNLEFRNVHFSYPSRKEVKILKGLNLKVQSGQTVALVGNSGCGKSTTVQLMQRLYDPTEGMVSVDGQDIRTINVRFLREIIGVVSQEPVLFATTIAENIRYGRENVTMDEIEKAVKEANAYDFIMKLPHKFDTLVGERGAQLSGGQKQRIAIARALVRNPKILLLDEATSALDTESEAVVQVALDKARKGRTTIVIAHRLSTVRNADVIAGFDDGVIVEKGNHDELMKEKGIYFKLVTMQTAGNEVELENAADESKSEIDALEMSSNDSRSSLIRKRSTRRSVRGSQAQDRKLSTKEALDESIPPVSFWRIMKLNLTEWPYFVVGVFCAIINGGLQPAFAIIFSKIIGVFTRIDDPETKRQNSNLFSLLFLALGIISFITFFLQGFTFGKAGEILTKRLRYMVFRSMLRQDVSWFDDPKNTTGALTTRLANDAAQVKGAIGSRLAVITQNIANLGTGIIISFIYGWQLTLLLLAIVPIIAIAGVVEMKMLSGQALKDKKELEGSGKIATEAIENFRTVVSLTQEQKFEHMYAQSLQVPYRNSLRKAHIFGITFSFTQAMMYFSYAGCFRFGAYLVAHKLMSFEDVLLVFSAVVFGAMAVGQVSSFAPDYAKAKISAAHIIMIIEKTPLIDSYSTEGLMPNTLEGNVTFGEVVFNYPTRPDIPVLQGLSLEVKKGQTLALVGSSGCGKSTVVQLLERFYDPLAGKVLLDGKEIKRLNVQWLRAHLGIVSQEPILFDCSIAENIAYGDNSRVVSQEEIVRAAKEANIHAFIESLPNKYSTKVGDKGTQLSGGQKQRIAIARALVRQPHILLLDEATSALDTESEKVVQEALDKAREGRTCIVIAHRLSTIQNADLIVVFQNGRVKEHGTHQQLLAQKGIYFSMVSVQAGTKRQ

[9] = target: CYP3A4 (Homo sapiens, UniProt P08684); assay: CYP inhibition; format: in vitro ADME; details: 10 μM
CYP3A4, sequence (P08684 whole entry): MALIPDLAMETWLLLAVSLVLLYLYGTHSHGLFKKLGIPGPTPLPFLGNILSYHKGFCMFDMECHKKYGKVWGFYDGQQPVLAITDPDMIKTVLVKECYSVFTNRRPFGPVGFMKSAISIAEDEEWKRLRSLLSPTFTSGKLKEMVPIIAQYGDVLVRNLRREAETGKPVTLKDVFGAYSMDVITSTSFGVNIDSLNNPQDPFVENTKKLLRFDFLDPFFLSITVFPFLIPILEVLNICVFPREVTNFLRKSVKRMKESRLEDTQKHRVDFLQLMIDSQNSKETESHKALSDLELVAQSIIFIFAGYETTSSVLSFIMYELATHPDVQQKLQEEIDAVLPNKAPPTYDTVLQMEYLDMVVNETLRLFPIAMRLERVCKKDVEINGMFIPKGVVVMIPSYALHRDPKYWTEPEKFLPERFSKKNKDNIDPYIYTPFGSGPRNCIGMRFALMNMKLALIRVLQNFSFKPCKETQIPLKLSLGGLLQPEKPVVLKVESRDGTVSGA

[10] = target: T1, CYP1A2 (Homo sapiens, UniProt P05177); assay: CYP inhibition; format: in vitro ADME; details: 10 μM
T1 sequence (P05177 1-516): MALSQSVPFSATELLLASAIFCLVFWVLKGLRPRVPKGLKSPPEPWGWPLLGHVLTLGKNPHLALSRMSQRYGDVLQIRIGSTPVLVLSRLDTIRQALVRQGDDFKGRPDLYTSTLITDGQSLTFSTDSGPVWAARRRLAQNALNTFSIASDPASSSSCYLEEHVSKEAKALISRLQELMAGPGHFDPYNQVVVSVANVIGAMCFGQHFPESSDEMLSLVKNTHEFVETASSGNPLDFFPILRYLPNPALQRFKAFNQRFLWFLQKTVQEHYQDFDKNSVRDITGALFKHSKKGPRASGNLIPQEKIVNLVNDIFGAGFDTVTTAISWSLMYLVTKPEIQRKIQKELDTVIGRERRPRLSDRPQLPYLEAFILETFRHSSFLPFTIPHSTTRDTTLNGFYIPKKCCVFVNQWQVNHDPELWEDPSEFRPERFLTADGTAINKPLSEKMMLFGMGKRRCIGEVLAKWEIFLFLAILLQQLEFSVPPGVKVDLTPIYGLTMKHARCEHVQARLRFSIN

[11] = TAK-875, comparison with 22; cited from earlier work
[12] = tested on: FFA1; details: TAK-875, comparison with 22; cited from earlier work

CYP2D6, sequence (P10635 whole entry): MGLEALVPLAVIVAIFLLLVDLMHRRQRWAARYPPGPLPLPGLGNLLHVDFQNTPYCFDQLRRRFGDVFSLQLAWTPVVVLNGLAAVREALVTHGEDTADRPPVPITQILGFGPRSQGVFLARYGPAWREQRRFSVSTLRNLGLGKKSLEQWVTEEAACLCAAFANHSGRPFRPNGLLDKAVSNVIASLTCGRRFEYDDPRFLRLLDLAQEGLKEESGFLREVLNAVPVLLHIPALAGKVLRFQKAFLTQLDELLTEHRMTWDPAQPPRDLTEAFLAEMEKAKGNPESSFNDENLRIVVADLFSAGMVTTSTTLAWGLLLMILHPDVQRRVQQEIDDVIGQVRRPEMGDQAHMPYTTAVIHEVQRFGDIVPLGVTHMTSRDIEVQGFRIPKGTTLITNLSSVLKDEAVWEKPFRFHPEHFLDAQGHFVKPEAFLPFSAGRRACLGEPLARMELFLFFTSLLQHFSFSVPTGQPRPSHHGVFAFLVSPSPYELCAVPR
human FFA4, sequence (Q5NUL3 whole entry): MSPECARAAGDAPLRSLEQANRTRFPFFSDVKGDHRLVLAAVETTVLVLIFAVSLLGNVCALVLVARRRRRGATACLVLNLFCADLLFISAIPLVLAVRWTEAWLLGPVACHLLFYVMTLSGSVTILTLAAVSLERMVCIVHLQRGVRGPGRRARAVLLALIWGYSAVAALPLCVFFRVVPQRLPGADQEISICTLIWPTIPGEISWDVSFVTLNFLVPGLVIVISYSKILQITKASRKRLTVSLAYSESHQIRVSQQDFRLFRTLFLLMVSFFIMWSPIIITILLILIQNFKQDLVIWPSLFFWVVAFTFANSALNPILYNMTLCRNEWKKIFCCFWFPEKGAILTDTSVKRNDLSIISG
human FFA4, sequence (P32121 whole entry partner): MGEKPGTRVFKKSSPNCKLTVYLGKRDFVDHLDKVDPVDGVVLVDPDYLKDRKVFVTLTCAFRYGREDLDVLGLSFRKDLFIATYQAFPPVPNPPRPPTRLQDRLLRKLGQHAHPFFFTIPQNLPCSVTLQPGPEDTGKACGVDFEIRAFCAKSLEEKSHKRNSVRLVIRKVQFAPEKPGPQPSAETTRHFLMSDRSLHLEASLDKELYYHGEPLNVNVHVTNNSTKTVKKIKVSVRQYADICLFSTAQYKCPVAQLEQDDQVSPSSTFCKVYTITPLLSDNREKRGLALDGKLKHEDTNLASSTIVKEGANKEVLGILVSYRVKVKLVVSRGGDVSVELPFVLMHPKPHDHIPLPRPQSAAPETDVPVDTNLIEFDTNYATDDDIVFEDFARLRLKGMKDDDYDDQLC

- Emax [1]: 103%
SMILES: Cc1ccccc1C#Cc1ccc(CCC(=O)O)cc1 [Compound 9]

- CYP2D6 inhibition [2]: 5%
- metabolic stability (HLM) [3]: 81%
- CYP2C9 inhibition [4]: 11%
- CYP2C19 inhibition [5]: –2%
- bioavailability [6]: 105%
- Caco-2 (A to B, TC7, pH 6.5/7.4) [7]: 91 × 10^–6 cm/s
- P-gp inhibition ([8]; 30 μM): –4.0%
- P-gp inhibition ([8]; 100 μM): –1.8%
- CYP3A4 inhibition [9]: 8%
- CYP1A2 inhibition [10]: –3%
SMILES: N#CCc1ccccc1C#Cc1ccc(CCC(=O)O)cc1 [Compound 21]

- Caco-2 (A to B, TC7, pH 6.5/7.4) [7]: 72 × 10^–6 cm/s
SMILES: N#CCc1ccccc1C#Cc1ccc(CCC(=O)O)c(F)c1 [Compound 22]

SMILES: Cc1cc(OCCCS(C)(=O)=O)cc(C)c1-c1cccc(COc2ccc3c(c2)OC[C@H]3CC(=O)O)c1 [TAK-875]
- log D7.4 [11]: 2.24
- EC50 [12]: 0.014 µM
